Reference: PMC13534584, “ATP13A4 gates extracellular polyamine levels to control excitatory synaptogenesis” (Nature Communications, 2026)
Positions count from the first letter of the chain named.

Experiments:
Test in all cases: ADP-Glo Max ATPase assay, dose-response
Type in all cases: biochemical
Settings in all cases: 5 mM ATP, 11 mM MgCl2, 100 mM KCl, MOPS-KOH pH 7, 37 °C, 0.001% DDM
[1] = biological target: T1, hATP13A4 (Homo sapiens, UniProt Q4VNC1)
T1 construct: gene ATP13A4; solubilised in DDM
T1 sequence (Q4VNC1 1-1196): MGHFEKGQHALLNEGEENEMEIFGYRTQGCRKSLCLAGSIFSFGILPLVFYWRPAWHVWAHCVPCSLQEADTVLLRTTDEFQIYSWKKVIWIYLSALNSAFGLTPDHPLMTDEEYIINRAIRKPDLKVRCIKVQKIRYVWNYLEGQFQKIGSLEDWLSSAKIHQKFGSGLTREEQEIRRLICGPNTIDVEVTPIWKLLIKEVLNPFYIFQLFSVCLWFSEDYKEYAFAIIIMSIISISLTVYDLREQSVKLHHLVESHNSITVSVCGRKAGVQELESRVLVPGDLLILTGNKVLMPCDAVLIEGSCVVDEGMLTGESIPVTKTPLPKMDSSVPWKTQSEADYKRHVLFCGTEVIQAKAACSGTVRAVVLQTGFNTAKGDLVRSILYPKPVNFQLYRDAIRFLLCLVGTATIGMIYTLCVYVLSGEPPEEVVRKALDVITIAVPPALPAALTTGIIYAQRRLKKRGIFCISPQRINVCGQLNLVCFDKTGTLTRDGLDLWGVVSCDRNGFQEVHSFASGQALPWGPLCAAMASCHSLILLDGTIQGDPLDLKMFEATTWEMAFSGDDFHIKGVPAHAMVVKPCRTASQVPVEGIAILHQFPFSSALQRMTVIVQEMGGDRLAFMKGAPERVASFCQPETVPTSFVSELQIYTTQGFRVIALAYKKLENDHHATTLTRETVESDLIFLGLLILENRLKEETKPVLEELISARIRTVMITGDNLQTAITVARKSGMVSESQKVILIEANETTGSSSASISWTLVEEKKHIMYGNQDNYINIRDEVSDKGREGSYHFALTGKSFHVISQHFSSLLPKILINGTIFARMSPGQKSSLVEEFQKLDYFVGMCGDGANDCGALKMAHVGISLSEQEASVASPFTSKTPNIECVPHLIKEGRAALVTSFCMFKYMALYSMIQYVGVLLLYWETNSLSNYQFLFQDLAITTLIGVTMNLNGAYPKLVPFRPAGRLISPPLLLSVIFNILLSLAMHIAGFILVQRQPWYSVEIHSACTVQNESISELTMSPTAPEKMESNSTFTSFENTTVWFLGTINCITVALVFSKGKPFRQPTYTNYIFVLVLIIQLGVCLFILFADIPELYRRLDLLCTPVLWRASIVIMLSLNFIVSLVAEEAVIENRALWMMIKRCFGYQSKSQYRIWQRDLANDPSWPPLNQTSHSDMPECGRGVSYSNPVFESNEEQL

[2] = biological target: T2, hATP13A4 (Homo sapiens, UniProt Q4VNC1, E276K)
T2 construct: gene ATP13A4; solubilised in DDM
T2 sequence (Q4VNC1 1-1196 E276K): T1 sequence (Q4VNC1 1-1196) with E276K

[3] = biological target: T3, hATP13A4 (Homo sapiens, UniProt Q4VNC1, A356V)
T3 construct: gene ATP13A4; solubilised in DDM
T3 sequence (Q4VNC1 1-1196 A356V): T1 sequence (Q4VNC1 1-1196) with A356V

| Compound | ATPase stimulation [1] | spermidine-dependent ATPase activity [2] | spermidine-dependent ATPase activity [3] |
| --- | --- | --- | --- |
| NCCCCCN [cadaverine] | Putrescine, spermidine, spermine, cadaverine, and acetylated polyamine derivatives each stimulated ATPase activity | – | – |
| NCCCCNCCCN [SPD, spermidine] | each stimulated ATPase activity of purified wild-type (WT) hATP13A4 in a concentration-dependent manner | p.E276K reduces spermidine-stimulated ATPase activity to a similar extent as p.A356V and p.E646D | spermidine-dependent ATPase activity of purified, solubilized ATP13A4 (WT and disease-associated variants p.E276K, p.A356V |
| NCCCNCCCCNCCCN [SPM, spermine] | ATP13A4 exhibits the highest apparent affinity for spermine and spermidine | – | – |
